Measured values reported in BigSolDB 2.1.

Q: With `C=C(C)[C@@H]1CC[C@]2(CO)CC[C@]3(C)[C@H](CC[C@@H]4[C@@]5(C)CC[C@H](O)C(C)(C)[C@@H]5CC[C@]43C)[C@@H]12` as the compound, how does the solubility (mole fraction) (in DMF, 293.2 K) read?
A: 0.00208

Q: What about the solubility (mole fraction) (in DMF, 298.2 K) of the same compound?
A: 0.00244

Q: What about the solubility (mole fraction) (in DMF, 303.2 K) of the same compound?
A: 0.00294

Q: What about the solubility (mole fraction) (in DMF, 308.2 K) of the same compound?
A: 0.00334

Q: What about the solubility (mole fraction) (in DMF, 313.2 K) of the same compound?
A: 0.00368

Q: And the solubility (mole fraction) (in DMF, 318.2 K)?
A: 0.00426

Q: And the solubility (mole fraction) (in DMF, 323.2 K)?
A: 0.00461

Q: And the solubility (mole fraction) (in DMF, 328.2 K)?
A: 0.00518

Q: What about the solubility (mole fraction) (in NMP, 293.2 K) of the same compound?
A: 0.00549

Q: And the solubility (mole fraction) (in NMP, 298.2 K)?
A: 0.00569

Q: What about the solubility (mole fraction) (in NMP, 303.2 K) of the same compound?
A: 0.0059

Q: And the solubility (mole fraction) (in NMP, 308.2 K)?
A: 0.00615

Q: And the solubility (mole fraction) (in NMP, 313.2 K)?
A: 0.00635

Q: And the solubility (mole fraction) (in NMP, 318.2 K)?
A: 0.00653

Q: What about the solubility (mole fraction) (in NMP, 323.2 K) of the same compound?
A: 0.00676

Q: What about the solubility (mole fraction) (in NMP, 328.2 K) of the same compound?
A: 0.00697

Q: And the solubility (mole fraction) (in acetonitrile, 293.2 K)?
A: 0.000269

Q: And the solubility (mole fraction) (in acetonitrile, 298.2 K)?
A: 0.000473

Q: What about the solubility (mole fraction) (in acetonitrile, 303.2 K) of the same compound?
A: 0.000697

Q: What about the solubility (mole fraction) (in acetonitrile, 308.2 K) of the same compound?
A: 0.00104

Q: And the solubility (mole fraction) (in acetonitrile, 313.2 K)?
A: 0.00137

Q: What about the solubility (mole fraction) (in acetonitrile, 318.2 K) of the same compound?
A: 0.00193

Q: What about the solubility (mole fraction) (in acetonitrile, 323.2 K) of the same compound?
A: 0.00244

Q: What about the solubility (mole fraction) (in acetonitrile, 328.2 K) of the same compound?
A: 0.00341

Q: What about the solubility (mole fraction) (in n-dodecane, 293.2 K) of the same compound?
A: 1.5e-05

Q: And the solubility (mole fraction) (in n-dodecane, 298.2 K)?
A: 1.6e-05

Q: And the solubility (mole fraction) (in n-dodecane, 303.2 K)?
A: 1.9e-05

Q: And the solubility (mole fraction) (in n-dodecane, 308.2 K)?
A: 2.3e-05

Q: And the solubility (mole fraction) (in n-dodecane, 313.2 K)?
A: 2.5e-05

Q: And the solubility (mole fraction) (in n-dodecane, 318.2 K)?
A: 3e-05

Q: What about the solubility (mole fraction) (in n-dodecane, 323.2 K) of the same compound?
A: 3.5e-05

Q: And the solubility (mole fraction) (in n-dodecane, 328.2 K)?
A: 4.5e-05

Q: And the solubility (mole fraction) (in n-hexadecane, 293.2 K)?
A: 4.6e-05

Q: What about the solubility (mole fraction) (in n-hexadecane, 298.2 K) of the same compound?
A: 5.3e-05

Q: And the solubility (mole fraction) (in n-hexadecane, 303.2 K)?
A: 5.7e-05

Q: And the solubility (mole fraction) (in n-hexadecane, 308.2 K)?
A: 6.5e-05

Q: What about the solubility (mole fraction) (in n-hexadecane, 313.2 K) of the same compound?
A: 7.6e-05

Q: And the solubility (mole fraction) (in n-hexadecane, 318.2 K)?
A: 8.3e-05

Q: And the solubility (mole fraction) (in n-hexadecane, 323.2 K)?
A: 9.8e-05

Q: And the solubility (mole fraction) (in n-hexadecane, 328.2 K)?
A: 0.000117

Q: What about the solubility (mole fraction) (in n-nonanol, 293.2 K) of the same compound?
A: 0.00217

Q: What about the solubility (mole fraction) (in n-nonanol, 298.2 K) of the same compound?
A: 0.00234

Q: What about the solubility (mole fraction) (in n-nonanol, 303.2 K) of the same compound?
A: 0.00254

Q: And the solubility (mole fraction) (in n-nonanol, 308.2 K)?
A: 0.00292

Q: What about the solubility (mole fraction) (in n-nonanol, 313.2 K) of the same compound?
A: 0.00324

Q: What about the solubility (mole fraction) (in n-nonanol, 318.2 K) of the same compound?
A: 0.00371

Q: And the solubility (mole fraction) (in n-nonanol, 323.2 K)?
A: 0.00431

Q: And the solubility (mole fraction) (in n-nonanol, 328.2 K)?
A: 0.0051

Q: And the solubility (mole fraction) (in n-octanol, 293.2 K)?
A: 0.0016

Q: And the solubility (mole fraction) (in n-octanol, 298.2 K)?
A: 0.00162

Q: What about the solubility (mole fraction) (in n-octanol, 303.2 K) of the same compound?
A: 0.00179

Q: What about the solubility (mole fraction) (in n-octanol, 308.2 K) of the same compound?
A: 0.00186

Q: What about the solubility (mole fraction) (in n-octanol, 313.2 K) of the same compound?
A: 0.00209

Q: And the solubility (mole fraction) (in n-octanol, 318.2 K)?
A: 0.00229

Q: And the solubility (mole fraction) (in n-octanol, 323.2 K)?
A: 0.00269

Q: What about the solubility (mole fraction) (in n-octanol, 328.2 K) of the same compound?
A: 0.00341

Q: And the solubility (mole fraction) (in n-pentanol, 293.2 K)?
A: 0.000894

Q: And the solubility (mole fraction) (in n-pentanol, 298.2 K)?
A: 0.00096

Q: And the solubility (mole fraction) (in n-pentanol, 303.2 K)?
A: 0.00108

Q: And the solubility (mole fraction) (in n-pentanol, 308.2 K)?
A: 0.0012

Q: What about the solubility (mole fraction) (in n-pentanol, 313.2 K) of the same compound?
A: 0.00132

Q: What about the solubility (mole fraction) (in n-pentanol, 318.2 K) of the same compound?
A: 0.00149

Q: What about the solubility (mole fraction) (in n-pentanol, 323.2 K) of the same compound?
A: 0.00175

Q: And the solubility (mole fraction) (in n-pentanol, 328.2 K)?
A: 0.00198

Q: And the solubility (mole fraction) (in sec-butanol, 293.2 K)?
A: 0.000701

Q: And the solubility (mole fraction) (in sec-butanol, 298.2 K)?
A: 0.000728

Q: And the solubility (mole fraction) (in sec-butanol, 303.2 K)?
A: 0.000813

Q: And the solubility (mole fraction) (in sec-butanol, 308.2 K)?
A: 0.000845

Q: What about the solubility (mole fraction) (in sec-butanol, 313.2 K) of the same compound?
A: 0.000941

Q: And the solubility (mole fraction) (in sec-butanol, 318.2 K)?
A: 0.00108

Q: And the solubility (mole fraction) (in sec-butanol, 323.2 K)?
A: 0.0012

Q: What about the solubility (mole fraction) (in sec-butanol, 328.2 K) of the same compound?
A: 0.00148

Q: And the solubility (mole fraction) (in water, 293.2 K)?
A: 4e-06

Q: And the solubility (mole fraction) (in water, 298.2 K)?
A: 5e-06

Q: And the solubility (mole fraction) (in water, 303.2 K)?
A: 6e-06

Q: And the solubility (mole fraction) (in water, 308.2 K)?
A: 9e-06

Q: And the solubility (mole fraction) (in water, 313.2 K)?
A: 1.4e-05

Q: What about the solubility (mole fraction) (in water, 318.2 K) of the same compound?
A: 1.8e-05

Q: And the solubility (mole fraction) (in water, 323.2 K)?
A: 2.5e-05

Q: What about the solubility (mole fraction) (in water, 328.2 K) of the same compound?
A: 3.3e-05

Q: What does the source list for `C[C@@H]1CC[C@@]2(OC1)O[C@H]1C[C@H]3[C@@H]4CC=C5C[C@@H](O)CC[C@]5(C)[C@H]4CC[C@]3(C)[C@H]1[C@@H]2C`?
A: solubility (mole fraction) (in n-pentanol, 293.2 K): 0.00462; solubility (mole fraction) (in n-pentanol, 298.2 K): 0.0051; solubility (mole fraction) (in n-pentanol, 303.2 K): 0.00621; solubility (mole fraction) (in n-pentanol, 308.2 K): 0.0075; solubility (mole fraction) (in n-pentanol, 313.2 K): 0.00866; solubility (mole fraction) (in n-pentanol, 318.2 K): 0.0102; solubility (mole fraction) (in n-pentanol, 323.2 K): 0.0122; solubility (mole fraction) (in n-pentanol, 328.2 K): 0.0148
